From US5391489A, “Proteolytic enzymes from hyperthermophilic bacteria and processes for their production” (Johns Hopkins University, priority 1993, dated 1995)
Where two headings read alike, the source gives them in different places. Values belong to the molecule of their own block, whether it stands above or below them.

What was measured:
[1] = system: purified SDS-resistant proteolytic enzyme preparation; test: Effect of denaturing agents on activity of the purified protease (standard azocasein assay); format: biochemical, Pyrococcus furiosus; conditions: for percentage of original activity: standard assay conditions; for loss of proteolytic activity: 1 molar, at 98° C. for at least 30 minutes
Method: Several denaturing agents were added to azocasein, both in the presence and absence of the protease, to control of possible degradation of the substrate in the presence of the agents. […] Thus, high concentrations of urea and guanidinium chloride led to significant abiotic hydrolysis of azocasein such that results were difficult to interpret. The increases in relative activity above 100% are likely the result of the denaturing agents acting to make the azocasein substrate more susceptible to enzymatic hydrolysis.
(§1) Determination of proteolytic activity was based on the cleavage of azocasein (Cowan, D. A., et al., 1987, Biochem, J. 247:121-133). Assay mixtures contained 900 μl of 0.1% azocasein in 0.05M sodium phosphate buffer (pH 7.3 at 100° C.), and 100 μl of sample. The reaction was terminated by the addition of 500 μl of 15% (w/v) trichloracetic acid, and the cooled on ice for 5 min. The precipitate formed was removed by centrifugation at 12,000×g for 3 min in a microcentrifuge. Color release as a result of proteolytic activity was detected by measuring the absorbance of the supernatant at 440 nm. Linear response of the assay was obtained between 0.010 and 0.100 absorbance units. A unit of activity is defined as the amount of protein which produces a change of 0.100 absorbance units at 440 nm for a 30 min. incubation at a given temperature. Total protein was measured using the BioRad assay kit.
(§2) Purified samples of the SDS-resistant protease were obtained by incubation of the cell-free extract for 24 hours in the presence of 1% SDS at 98° C. Extracts treated in this way were then dialyzed against 5 mM sodium phosphate buffer, pH 7.5 at 4° C. overnight and concentrated in a Pharmacia Omegacell Stirred Cell (nominal molecular weight limit of 10 kDa) to a concentration of 2-3 mg/ml protein measured by the Bio-Rad protein assay kit.

[2] = system: purified SDS-resistant proteolytic enzyme preparation; test: Effects of solvents on purified SDS-resistant proteolytic enzyme preparation; format: biochemical, Pyrococcus furiosus
Method: as §1, §2

[3] = system: purified SDS-resistant proteolytic enzyme preparation; test: Inhibitor studies on purified SDS-resistant proteolytic enzyme preparation; format: biochemical, Pyrococcus furiosus; conditions: for inhibition: concentrations below 150 μM; for inhibition at point of complete saturation: reached at 400 μM
Method: FIG. 7. Effect of chelating inhibitors EDTA and EGTA on activity at 98° C. of purified SDS-resistant proteolytic enzyme preparation from Pyrococcus furiosus. Samples of purified enzyme preparation were assayed in the standard azocasein with the inhibitor concentrations indicated.
as §1, with “Linear response of the assay was obtained between 0.010 and 0.100 absorbance units.” left out
as §2

[4] = Hydrolysis of synthetic substrate benzoyl DL-arginine p-nitroanilide; format: biochemical; conditions: at 60° C.
Method: (§3) For tests on the substrate specificity of the purified SDS-resistant preparation, benzoyl-L-arginine ethyl ester, benzoyl-DL-arginine p-nitroanilide, serum thymic factor, angiotensin I, and trypsin were obtained from Sigma. Assays of benzoyl-L-arginine ethyl ester and benzoyl-arginine p-nitroanilide were performed as described previously (Schwert, G. W. et al., 1955, Biochem. Biophys. Acta 16:570-575; Erlanger, B. F., et al., 1961, Arch. Biochem. Biophys. 95:271-278) with a change in buffers to 50 mM sodium phosphate buffer, pH 7.5, and a substrate preincubation of two minutes at standard assay temperature.

angiotensin I = test: Hydrolysis of peptide angiotensin I (reverse phase separation of products); format: biochemical; conditions: after two hours at 40° C.
Method: FIG. 8. Comparison of hydrolysis products of angiotensin I polypeptide by trypsin and purified SDS-resistant proteolytic enzyme preparation ("Pyrolysin") showing similarity of cleavage except for one additional cleavage by the novel enzyme preparation.
A chromatogram of the cleavage products of angiotensin I after exposure to the purified P. furiosus protease and to trypsin is shown in FIG. 8.
Hydrolysis of peptides was conducted with a modification of a procedure described by Cowan et al., 1987, Biochem. J. 247:121-133). The peptides serum thymic factor and angiotensin I were incubated with the protease from P. furiosus for fifteen and sixty minutes at 98° C., and two hours with trypsin at 40° C. End products were separated by reverse phase chromatography on a Waters high-performance liquid chromatography system using a WISP auto injector and μ-Bondapak C18 with a linear gradient of acetonitrile and water, with 0.1% trifluoroacetic acid in both phases. Peaks from the reverse phase column were dried down in a Savant Speed-Vac and analyzed by Waters Pico-Tag amino acid analysis.

[5] = Hydrolysis of synthetic substrate benzoyl-L-arginine ethyl ester; format: biochemical; conditions: at 60° C.
Method: as §3

percentage of original activity ([1]; 10 mM): 39.5%
Molecule: O[C@H](CS)[C@H](O)CS (racemic) [dithiothreitol]

Molecule: CC#N [Acetonitrile]
% Activity ([2]; 20% (v/v) solvent): 77%
% Activity ([2]; 50% (v/v) solvent): 71%
% Activity ([2]; 70% (v/v) solvent): 39%

Molecule: CN(C)C=O [Dimethylformamide]
% Activity ([2]; 10% (v/v) solvent): 80%
% Activity ([2]; 50% (v/v) solvent): 13%
% Activity ([2]; 100% solvent): 25%

% inhibition ([3]; 100 μM inhibitor): 7.8%
% inhibition ([3]; 500 μM inhibitor): 51%
% inhibition ([3]; 10 mM inhibitor): 49%
inhibition [3]: no inhibition
inhibition at point of complete saturation [3]: about 50%
Molecule: O=C(O)CN(CCN(CC(=O)O)CC(=O)O)CC(=O)O [EDTA]

% inhibition ([3]; 100 μM inhibitor): 7.8%
% inhibition ([3]; 500 μM inhibitor): 51%
% inhibition ([3]; 10 mM inhibitor): 49%
inhibition [3]: no inhibition
inhibition at point of complete saturation [3]: about 50%
Molecule: O=C(O)CN(CCOCCOCCN(CC(=O)O)CC(=O)O)CC(=O)O [EGTA, [Ethylenebis(oxyethylenenitrilo)]tetraacetic acid]

percentage of original activity ([1]; 1M denaturant): 256%
loss of proteolytic activity [1]: no loss of proteolytic activity
percentage of original activity ([1]; 2M denaturant): 299%
Molecule: N=C(N)N [guanidinium chloride]

Molecule: O=C(O)CI [iodoacetic acid]
% inhibition [3]: 0%

Molecule: O=C(O)c1cc[c]([Hg][Cl])cc1 [p-chloromercuribenzoate]
% inhibition ([3]; 10 mM inhibitor): 40%

Molecule: O=S(=O)(F)Cc1ccccc1 [phenyl methylsulfonyl fluoride]
% inhibition ([3]; 10 mM inhibitor): 0%

loss of proteolytic activity [1]: no loss of proteolytic activity
percentage of original activity ([1]; 2M denaturant): 124%
percentage of original activity ([1]; 4M denaturant): 138%
Molecule: NC(N)=O [urea]

percentage of original activity ([1]; 150 mM): 57%
Molecule: OCCS [β-mecaptoethanol]

B1: trypsin (protein, UniProt P00760 24-246, looked up)
Serine protease 1: IVGGYTCGANTVPYQVSLNSGYHFCGGSLINSQWVVSAAHCYKSGIQVRLGEDNINVVEGNEQFISASKSIVHPSYNSNTLNNDIMLIKLKSAASLNSRVASISLPTSCASAGTQCLISGWGNTKSSGTSYPDVLKCLKAPILSDSSCKSAYPGQITSNMFCAGYLEGGKDSCQGDSGGPVVCSGKLQGIVSWGSGCAQKNKPGVYTKVCNYVSWIKQTIASN
notes: comparison protease obtained from Sigma
hydrolysis of substrate [4]: effective
remaining uncleaved peptide (angiotensin I): still a portion of uncleaved angiotensin I
hydrolysis of substrate [5]: effective
